Data set [1] concerns the target T1, ATP-dependent translocase ABCB1 (Homo sapiens, UniProt P08183). Description: TP_TRANSPORTER: increase in Rhodamine 123 intracellular accumulation (R123: 10 uM, Mefloquine: 10 uM) in K562/DOX cells. The note with it: k562/adr. The class given is functional, cell-based.
Data set [2] addresses T1, ATP-dependent translocase ABCB1. The experiment in a line: TP_TRANSPORTER: inhibition of Azidopine photoaffinity labelling (Azidopine: 0.1 uM, Mefloquine: 10 uM) in membranes from K562/DOX cells. The class given is functional, cell membranes, Membrane. Particulars: k562/adr.
The target is the same in data set [3]. Description: TP_TRANSPORTER: intracellular accumulation in K562 and K562/DXR cells. The class given is functional, cell-based.

T1 sequence (P08183 whole entry): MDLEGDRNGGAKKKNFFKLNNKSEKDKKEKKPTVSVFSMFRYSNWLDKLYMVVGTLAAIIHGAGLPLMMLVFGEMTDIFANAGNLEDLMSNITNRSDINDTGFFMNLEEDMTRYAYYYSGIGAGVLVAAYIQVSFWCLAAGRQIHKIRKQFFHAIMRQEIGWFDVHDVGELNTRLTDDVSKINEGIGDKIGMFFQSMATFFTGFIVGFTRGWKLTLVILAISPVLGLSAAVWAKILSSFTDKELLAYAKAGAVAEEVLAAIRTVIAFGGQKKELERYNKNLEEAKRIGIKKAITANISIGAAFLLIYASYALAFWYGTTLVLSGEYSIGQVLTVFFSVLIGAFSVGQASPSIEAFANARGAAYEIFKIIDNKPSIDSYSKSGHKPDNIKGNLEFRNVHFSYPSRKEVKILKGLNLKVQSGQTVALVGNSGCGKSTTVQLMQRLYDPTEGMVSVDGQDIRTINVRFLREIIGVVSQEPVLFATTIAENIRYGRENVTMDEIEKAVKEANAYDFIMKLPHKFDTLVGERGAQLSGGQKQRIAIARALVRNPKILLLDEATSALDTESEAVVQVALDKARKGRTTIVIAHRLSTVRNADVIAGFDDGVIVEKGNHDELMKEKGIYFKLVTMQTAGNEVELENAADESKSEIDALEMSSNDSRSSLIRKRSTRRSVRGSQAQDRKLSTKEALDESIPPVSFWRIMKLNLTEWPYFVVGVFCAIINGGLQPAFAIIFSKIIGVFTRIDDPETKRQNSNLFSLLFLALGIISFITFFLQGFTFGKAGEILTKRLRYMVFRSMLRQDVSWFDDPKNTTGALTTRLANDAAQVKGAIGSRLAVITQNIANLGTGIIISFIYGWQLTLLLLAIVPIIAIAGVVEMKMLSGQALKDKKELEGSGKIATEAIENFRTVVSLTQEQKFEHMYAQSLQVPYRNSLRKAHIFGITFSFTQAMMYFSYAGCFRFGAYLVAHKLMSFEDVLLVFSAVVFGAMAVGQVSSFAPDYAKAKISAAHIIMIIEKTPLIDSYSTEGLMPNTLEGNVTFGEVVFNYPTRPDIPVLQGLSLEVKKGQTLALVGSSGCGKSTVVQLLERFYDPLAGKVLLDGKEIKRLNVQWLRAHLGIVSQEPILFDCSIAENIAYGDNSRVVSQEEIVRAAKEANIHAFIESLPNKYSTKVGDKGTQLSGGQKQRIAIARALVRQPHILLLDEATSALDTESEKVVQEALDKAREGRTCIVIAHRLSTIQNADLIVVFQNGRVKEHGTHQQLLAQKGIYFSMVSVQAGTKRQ

Regarding `OC(c1cc(C(F)(F)F)nc2c(C(F)(F)F)cccc12)C1CCCCN1` (stereo not drawn) [MEFLOQUINE], the Activity result in data set [1] and in data set [2] was “inhibitor [+]” in each case.

Consider `COC(=O)c1ccccc1-c1c2ccc(=N)cc-2oc2cc(N)ccc12.Cl` [RHODAMINE123], for which the Activity result in data set [3] was “substrate [+]”.

The values are drawn from ChEMBL document CHEMBL2073901, “Enhancement of doxorubicin activity in multidrug-resistant cells by mefloquine” (Methods Find Exp Clin Pharmacol, 2000).
